Measurements taken from ChEMBL document CHEMBL1201862, “PubChem BioAssay data set” (2004).
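Where inhibition never reached the appropriate level, the endpoint shown equals the highest concentration tested. Otherwise, values were interpolated linearly from a five-concentration, 48-hour dose response in 96-well plates. At the GI50, growth is halved.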 Activity calls are given as the source filed them. Cut-off read from the data, not from the text of the source: active = GI50 up to about 1.1 µM and inactive = higher.

Experiments:
Test in all cases: growth of human tumour cells (NCI), 48 h
[1] = tested on: 786-0
[2] = tested on: HOP-62
[3] = tested on: SW-620
[4] = tested on: SK-OV-3
[5] = tested on: DU-145
[6] = tested on: NCI-H522
[7] = tested on: HT-29
[8] = tested on: SF-539
[9] = tested on: UO-31
[10] = tested on: SK-MEL-2
[11] = tested on: M19-MEL
[12] = tested on: ACHN
[13] = tested on: HL-60
[14] = tested on: A549
[15] = tested on: Hs-578T
[16] = tested on: NCI-H23
[17] = tested on: PC-3
[18] = tested on: SK-MEL-28
[19] = tested on: CAKI-1
[20] = tested on: NCI/ADR-RES

Row | SMILES | GI50 [1] | GI50 [2] | GI50 [3] | GI50 [4] | GI50 [5] | GI50 [6] | GI50 [7] | GI50 [8] | GI50 [9] | GI50 [10] | GI50 [11] | GI50 [12] | GI50 [13] | GI50 [14] | GI50 [15] | GI50 [16] | GI50 [17] | GI50 [18] | GI50 [19] | GI50 [20]
1 | COc1ccc(OC(=O)N2C/C(=C\c3ccccc3)C(=O)/C(=C/c3ccccc3)C2)cc1 | 2.96 µM (inactive) | 8.15 µM (inactive) | 1.03 µM (active) | 8.69 µM (inactive) | 24.9 µM (inactive) | 2.05 µM (inactive) | 1.27 µM (inactive) | 7.82 µM (inactive) | 10.2 µM (inactive) | 11.6 µM (inactive) | 1.38 µM (inactive) | 3.94 µM (inactive) | 0.746 µM (active) | 15.2 µM (inactive) | 2.11 µM (inactive) | 5.05 µM (inactive) | 3.66 µM (inactive) | 2.14 µM (inactive) |  | 
2 | C1=C(c2ccccc2)CN(c2ccccc2)OC1 | > 100 µM (inactive) | > 100 µM (inactive) | > 100 µM (inactive) | > 100 µM (inactive) |  | 18.6 µM (inactive) | 44.4 µM (inactive) | > 100 µM (inactive) | 32.2 µM (inactive) | 50.6 µM (inactive) | 47.5 µM (inactive) | 63.2 µM (inactive) | 54.8 µM (inactive) | 85.9 µM (inactive) |  | 89.7 µM (inactive) |  | 79.8 µM (inactive) | 56.5 µM (inactive) | 
3 | COC(=O)c1nc(N)nc(O)c1-c1ccc(Cl)cc1 | > 100 µM (inactive) | > 100 µM (inactive) | > 100 µM (inactive) | > 100 µM (inactive) |  | > 100 µM (inactive) | > 100 µM (inactive) | > 100 µM (inactive) | > 100 µM (inactive) | > 100 µM (inactive) | > 100 µM (inactive) | > 100 µM (inactive) | > 100 µM (inactive) | > 100 µM (inactive) |  | > 100 µM (inactive) |  | > 100 µM (inactive) | > 100 µM (inactive) | 
4 | O=c1c2cc(Cl)ccc2n2nnc3ccc(NCCNCCO)c1c32 | 0.741 µM (active) | 1.41 µM (inactive) | 0.466 µM (active) | 2.67 µM (inactive) | 3.44 µM (inactive) | 1.33 µM (inactive) | 0.575 µM (active) | 1.8 µM (inactive) | 1.17 µM (inactive) | 2.09 µM (inactive) | 1.55 µM (inactive) | 0.682 µM (active) | 1.78 µM (inactive) | 0.719 µM (active) | 1.78 µM (inactive) | 1.36 µM (inactive) | 1.16 µM (inactive) | 1.79 µM (inactive) | 1.83 µM (inactive) | 0.665 µM (active)
